Measurements reported in US9930893B2, “Inhibitors of DXP synthase and methods of use thereof” (The Johns Hopkins University, priority 2014, dated 2018).
Converted amounts (≈) assume the structure as drawn. “And” between values parts separate entries of the source, which are not always exact repeats. Equal values may be shown once. Read-outs that look alike come from different tables or passages of the source.

How the values were obtained:
[1] = system: wild-type K-12 E. coli (ATCC: MG1655); assay: Antimicrobial activity against E. coli K-12 grown in CAMHB; type: cell-based; conditions: Escherichia coli, MG1655, 16 h, read-out: minimum inhibitory concentration (MIC90)
Procedure: FIG. 7A and FIG. 7B are charts showing representative growth curves are shown for BAP (FIG. 7A) and BnAP (FIG. 7B). Alkylacetylphosphonates exert dose-dependent delay in E. coli K-12 (MG 1655) growth in CAMHB. Fractional growth (measured at 16 h, blue arrow) was determined relative to the no drug control. Standardized cell cultures were exposed to increasing concentrations of acetylphosphonate, and growth was determined by measuring the OD600 for a period of 16 hours. Acetylphosphonate concentration was varied from 0-5 mM: No drug (light blue), 0.08 mM (orange), 0.16 mM (gray), 0.31 mM (yellow), 0.63 mM (blue), 1.25 mM (green), 2.5 mM (dark blue) and 5.0 mM (brown).
Thus, BnAP, PentAP, HexAP and OctAP, also shown to inhibit DXP synthase, were evaluated for antimicrobial activity against wild-type K-12 E. coli (ATCC: MG1655) grown in rich medium (CAMHB).

[2] = molecular target: T1, Porcine pyruvate dehydrogenase (PDH E1 subunit) (Sus scrofa, UniProt P29804); assay: Inhibition of PDH by acetylphosphonates; type: biochemical; conditions: Ki^PDH
T1 construct: Ki^PDH; μM); Ki^PDH
T1 sequence (P29804 1-390): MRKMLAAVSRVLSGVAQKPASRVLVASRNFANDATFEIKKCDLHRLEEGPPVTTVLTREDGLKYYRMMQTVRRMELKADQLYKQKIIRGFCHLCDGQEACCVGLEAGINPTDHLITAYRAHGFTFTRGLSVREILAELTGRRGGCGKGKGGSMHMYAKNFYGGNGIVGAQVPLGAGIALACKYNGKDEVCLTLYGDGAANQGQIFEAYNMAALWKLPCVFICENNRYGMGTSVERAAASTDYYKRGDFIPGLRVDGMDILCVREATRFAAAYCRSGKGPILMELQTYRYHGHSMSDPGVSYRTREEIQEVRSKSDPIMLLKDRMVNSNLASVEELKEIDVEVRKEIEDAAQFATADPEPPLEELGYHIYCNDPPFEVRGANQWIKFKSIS
Procedure: FIG. 6A, FIG. 6B, and FIG. 6C are charts showing Competitive inhibition of procine PDH E1 subunit by PentAP (FIG. 6A), HexAP (FIG. 6B) and OctAP (FIG. 6C). Inhibition assays were performed as previously described^[18]. Pyruvate concentration was varied from 12.5-250 μM and acetylphosphonate concentration was varied: 0 μM (∘), 250 μM (PentAP) or 200 μM (HexAP and OctAP) (●), 500 μM (□) and 1000 μM (▪). Experiments were performed in triplicate, and data were subjected to non-linear regression analysis for Ki determinations (GraphPad Prism). Representative Lineweaver-Burk plots (GraFit from Erithacus Software) are shown for PentAP (FIG. 6A), HexAP (FIG. 6B) and OctAP (FIG. […]) to illustrate the competitive inhibition mode with respect to pyruvate.
Pyruvate dehydrogenase activity was measured spectrophotometrically as previously reported ^[38] by monitoring absorbance changes at 340 nm due to reduction of NAD^+ by PDH. Reaction mixtures contained 100 mM HEPES (pH 8.0), 1 mg/mL BSA, 0.2 mM ThDP, 0.1 mM coenzyme A, 1 mM MgCl2, 2 mM cysteine, 0.3 mM tris(2-carboxyethyl)phosphine (TCEP). The reaction was initiated with enzyme (0.01 units/ml) and activity was monitored at 30° C. For inhibition studies, reaction mixtures (described above) including BnAP (0.5, 1, 2.25 mM) were pre-incubated at 30° C. for 5 minutes. Initial rates were measured immediately after reactions were initiated by addition of PDH (0.01 units/ml). Double reciprocal analysis of data was carried out using GraFit version 7 from Erithacus Software.

[3] = molecular target: T2, E. coli DXP synthase (Escherichia coli, UniProt P77488); assay: biochemical
T2 construct: made in house
Procedure: FIG. 4A, FIG. 4B, and FIG. 4C are charts showing competitive inhibition of DXP synthase by pentylacetylphosphonate (PentAP; FIG. 4A), hexylacetylphosphonate (HexAP; FIG. 4B), and octylacetyl phosphonate (OctAP; FIG. 4C). Inhibition assays were performed as previously described^[18], [40]). […] Pyruvate concentration was varied from 12-240 μM and acetylphosphonate concentration was varied: 0 μM (∘), 10 μM (●), 25 μM (□) and 50 μM (▪). Experiments were performed in triplicate, and data were subjected to non-linear regression analysis for Ki determinations (GraphPad Prism). Representative Lineweaver-Burk plots (GraFit from Erithacus Software) are shown for PentAP (FIG. 4A), HexAP (FIG. 4B) and OctAP (FIG. 4C) to illustrate the competitive inhibition mode with respect to pyruvate.
Inhibition of DXP synthase was measured as previously described^[13], [18]. […] Acetylphosphonate concentration was varied from 0 to 250 μM. […] Experiments were performed in triplicate for BAP and in duplicate for iPrAP
In order to evaluate the inhibitory activity of BnAP against DXP synthase, a continuous spectrophotometric coupled assay was used to measure formation of DXP by monitoring IspC consumption of NADPH (340 nm). ^[2] DXP synthase reaction mixtures (previously described) including BnAP (15, 30, and 60 μM), IspC (1 μM) and NADPH (100 μM) were pre-incubated at 37° C. for 5 minutes. Initial rates were measured after the reaction was initiated by the addition of DXP synthase. Inhibition of the coupling enzyme (IspC) by BnAP was not observed up to 1.5 mM. Experiments were performed in triplicate. Double reciprocal analysis of data was carried out using GraFit version 7 from Erithacus Software.

[4] = molecular target: T3, E. coli DXP synthase (DXPS) (Escherichia coli, UniProt P77488); type: biochemical; conditions: for kcat: acceptor substrate turnover
T3 construct: made in house
T3 sequence (P77488 1-620): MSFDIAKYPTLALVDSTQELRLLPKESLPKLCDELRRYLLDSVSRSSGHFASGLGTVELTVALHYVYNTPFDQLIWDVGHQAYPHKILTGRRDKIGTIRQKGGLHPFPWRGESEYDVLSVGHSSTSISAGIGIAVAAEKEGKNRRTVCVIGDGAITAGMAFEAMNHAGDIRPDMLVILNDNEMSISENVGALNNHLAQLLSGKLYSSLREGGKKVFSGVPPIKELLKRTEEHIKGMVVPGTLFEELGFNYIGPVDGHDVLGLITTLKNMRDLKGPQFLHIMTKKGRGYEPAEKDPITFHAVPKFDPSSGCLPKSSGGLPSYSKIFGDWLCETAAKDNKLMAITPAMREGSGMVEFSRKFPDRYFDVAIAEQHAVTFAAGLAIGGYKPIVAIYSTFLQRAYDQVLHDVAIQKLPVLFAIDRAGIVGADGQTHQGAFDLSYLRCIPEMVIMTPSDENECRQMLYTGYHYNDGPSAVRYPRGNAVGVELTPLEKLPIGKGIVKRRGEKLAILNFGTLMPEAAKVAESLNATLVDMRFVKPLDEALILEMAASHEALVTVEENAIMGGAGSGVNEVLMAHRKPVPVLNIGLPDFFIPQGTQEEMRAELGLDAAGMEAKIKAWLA
Procedure: Reaction mixtures containing 100 mM HEPES, pH 8.0, 2 mM MgCl2, 5 mM NaCl, 1 mM ThDP, 1 mg/mL BSA, 10-20 mM pyruvate, 10% DMSO, 0.5 mM 5 mM nitroso substrate were pre-incubated at 37° C. for 5 min. […] Aliquots of enzymatic mixture were removed at various time intervals and quenched into an equal volume of cold methanol. Quenched mixtures were incubated on ice for 20 minutes. Precipitated proteins were removed by centrifugation, and the supernatant was analyzed by HPLC with UV detection using the following conditions: Flow rate=3 mL/min; Solvent A: 100 mM NH4OAc, pH 4.6; Solvent B: acetonitrile; Method: 0-100% B over 10 min. New products formed were extracted from the supernatant using ethyl acetate (3×). […] Products were subsequently characterized by mass spectrometry.
Reaction mixtures containing 100 mM HEPES, pH 8.0, 2 mM MgCl2, 5 mM NaCl, 1 mM ThDP, 1 mg/mL BSA, 10-20 mM pyruvate, 10% DMSO v/v, and 10-300 μM nitroso substrate were pre-incubated at 37° C. for 5 min. […] Substrate concentration as a function of time was determined from absorbance values using Beer's Law. Initial reaction rates were determined from the linear range of the reaction progress curve, usually within 1-3 min. Data analysis to determine kcat and Km for each alternative substrate was carried out using GraFit version 7 from Erithacus Software.

[5] = molecular target: T4, DXP synthase (Escherichia coli, UniProt P77488); assay: Inhibition of DXP formation by nitroso substrates (HPLC-based assay); type: biochemical, E. coli; conditions: 30 μM D-GAP, 80 μM pyruvate, 37° C.; average ± SEM
T4 construct: made in house
T4 sequence (P77488 1-620): T3 sequence (P77488 1-620)
Procedure: Enzyme reactions were initiated by addition of 0.1 μM DXP synthase. Aliquots (150 μL) of the enzymatic mixture were removed between 0.5 and 3 minutes and quenched into ice-cold methanol (150 μL). Precipitated protein was removed by centrifugation, and the supernatant was diluted in an equal volume of water. The nitroso substrate was removed by extraction into acetonitrile (3×), using a previously described freeze-extraction technique. ^[32] […] The derivatization mixtures were analyzed by HPLC as previously described. ^[19] To determine initial reaction rates in the presence of varying inhibitor concentration, the D,L-GAP and DXP hydrazone HPLC peak areas were measured, and the product concentration was determined as a percent of total peak area and plotted against reaction time. Initial rates GraFit version 7 from Erithacus Software was utilized to generate IC50 curves.

[6] = system: porcine PDH E1 subunit; type: biochemical
Procedure: Reaction mixtures containing 100 mM HEPES, pH 8.0, 2 mM MgCl2, 5 mM NaCl, 1 mM ThDP, 1 mg/mL BSA, 10-20 mM pyruvate, 10% DMSO v/v, and 10-300 μM nitroso substrate were pre-incubated at 37° C. for 5 min. Enzymatic reactions were initiated by addition of 0.5-2 μM DXP synthase (or 0.1 units/ml PDH) and monitored spectrophotometrically by measuring the rate of disappearance of the nitroso substrate at its corresponding λmax. Substrate concentration as a function of time was determined from absorbance values using Beer's Law. Initial reaction rates were determined from the linear range of the reaction progress curve, usually within 1-3 min. Data analysis to determine kcat and Km for each alternative substrate was carried out using GraFit version 7 from Erithacus Software.

[7] = Ki (DXP synthase), competitive with respect to pyruvate
[8] = Table 4, read-out: In vitro DXP syn IC50
[9] = 10-20 mM pyruvate, pH 8.0, 10% DMSO, 37° C., average ± SEM
[10] = acceptor substrate, 10-20 mM pyruvate, pH 8.0, 10% DMSO, 37° C., average ± SEM

Molecule `CC(=O)P(=O)(O)OCc1ccccc1` [Compound 1, benzyl acetylphosphonate] has an MIC90 [1] of 630 µM (≈ 135 µg/mL), a Ki ([2]; Table 5 (no unit in table; μM)) of 880 ± 78 µM and a Ki ([2]; competitive with respect to pyruvate) of 882 ± 78 µM. The Ki [3, 7] was 10.4 ± 1.3 µM, the Ki ([3]; Ki (DXP synthase, with respect to D-GAP), uncompetitive with respect to D-GAP, 200 μM pyruvate) was 70 ± 8 µM and the Ki ([3]; Ki^DXPS, Table 5 (no unit in table; μM), vs pyruvate) was 10 ± 1 µM.
`CC(=O)P(=O)(O)OC1Cc2ccccc2C1` [Compound 2] was tested, and the IC50 [3, 8] was 64.5 µM.
`COc1cccc(COP(=O)([O-])C(C)=O)c1.[Li+]` [Compound 3] was tested, and the IC50 [3, 8] was 37.4 µM, the kcat [4, 9] was 0.6 ± 0.12 s⁻¹ and the Km [4, 10] was 99 ± 16 µM.
With `CC(=O)P(=O)([O-])OCCc1cccc2ccccc12.[Li+]` [Compound 5] the IC50 [3, 8] was 77 µM, the Ki ([3]; Table 4, read-out: In vitro DXP syn Ki) was 55 µM and the kcat [4, 9] was 0.0183 ± 0.0033 s⁻¹. The Km [4, 10] was 41 ± 10 µM.
Work on `O=Nc1c(O)ccc2cc(Br)ccc12` [Compound 6] yielded a kcat [4, 9] of 0.0333 ± 0.0033 s⁻¹ and a Km [4, 10] of 24 ± 6 µM.
`NS(=O)(=O)c1ccc2c(N=O)c(O)ccc2c1` [Compound 7] showed a kcat [4, 9] of 0.0197 ± 0.00067 s⁻¹ and a Km [4, 10] of 18 ± 4 µM.
`COc1ccc2ccc(O)c(N=O)c2c1` [Compound 8] was tested, and the IC50 [5] was over 2000 µM, the kcat [4, 9] was 0.0217 ± 0.0033 s⁻¹ and the Km [4, 10] was 63 ± 7 µM.
For `Cc1nn(C(C)C)c(C)c1N=O` [Compound 9], the IC50 [5] was over 2000 µM, the kcat [4, 9] was 0.0233 ± 0.0033 s⁻¹ and the Km [4, 10] was 387 ± 18 µM.
In the case of `O=Nc1ccc(O)c2ncccc12` [Compound 10], the “substrate usage by DXP synthase” value ([4]; in words) is reported as “did not act as substrate”.
Work on `C=CCOP(=O)(O)C(C)=O` [Compound 12] yielded an IC50 [3] of 20 µM.
In the case of `O=C[C@H](O)COP(=O)(O)O` [D-GAP, D-glyceraldehyde 3-phosphate, reference compound], the kcat [4, 9] is reported as 1.7 ± 0.12 s⁻¹ and the Km ([4]; pH 8) is reported as 28 ± 4 µM.
For `CCCCCCOP(=O)(O)C(C)=O` [HexAP, Hexylacetylphosphonate], the MIC90 [1] was 5000 µM (≈ 1040 µg/mL), the Ki ([2]; Table 5 (no unit in table; μM)) was 117 ± 9 µM and the Ki [3, 7] was 8.9 ± 0.5 µM.
`O=Nc1ccccc1` [Substrate 1, nitrosobenzene, reference compound] was tested, and the “increase in Km for PDH compared to DXP synthase” value [6] was 2.7 fold.
In the case of `CC(=O)P(=O)(O)OC(C)C` [iPrAP, Isopropylacetylphosphonate], the IC50 ([3]; pyruvate 95 μM, D-GAP 56 μM, error 95% Confidence Interval, read-out: IC50 (DXP synthase)) is reported as 250 µM and 245 µM.
benzyl acetylphosphonate [Compound 1] was tested, and the Km ([6]; 10-20 mM pyruvate, pH 8.0, 37° C., average ± SEM) was 350 ± 30 µM, the “Km^PDH/Km^DXPS” value ([6]; ratio porcine PDH E1 vs E. coli DXPS) was 2.7 and the IC50 [5] was 208 ± 20 µM. For the same molecule, the kcat [4, 9] was 2.92 ± 0.317 s⁻¹ and the Km [4, 10] was 133 ± 18 µM.
